Measured values: patent US10408843B2, “Compositions and methods for detecting S-nitrosylation and S-sulfinylation” (The Regents of the University of Michigan, priority 2013, dated 2019)
Each block holds one compound with its values, some of them ahead of it.

Key:
[1] = format: physicochemical
Method: S-nitrosoglutathione (GSNO, Cayman) and sodium phenylsulfinate (Sigma-Aldrich) were used for rate-determination studies at four pH values: pH 1.0 (0.2 N HCl/KCl buffer), pH 4.0 (0.1 M Sodium acetate/Acetic Acid buffer), pH 7.0 (0.1 M potassium phosphate buffer) and pH 10.0 (0.1 M Sodium bicarbonate/Sodium hydroxide buffer). The purity of S-nitrosoglutathione was calculated as 94±1.3% by absorbance at 334 nm using the molar extinction coefficient of 900 M^−1 cm^−1. Assays were performed using a plate reader (Tecan Infinite F500) monitoring absorbance of 2 mM GSNO at 340 nm over a course of 90 minutes in the presence of varying concentrations of sodium phenylsulfinate. Additional experiments confirmed thiosulfonate stability for >5 hours at pH 1, 4, and 7, but hydrolysis at pH 10. GSNO was stable in 6 M urea/PBS for >1 hour. Absorbance data was imported into KaleidaGraph (version 4.02, Synergy Software), and logarithmically fit to the first order exponential decay. The Kobs was calculated for each phenylsulfinic acid concentration, and plotted to calculate the rate constant for the overall reaction.

human DJ-1 (Cys106-SO2H) = target: T1, human DJ-1 (Cys106-SO2H) (Homo sapiens, UniProt Q99497); assay: LC-MS analysis of DJ-1 conjugation with an S-nitrosothiol; format: biochemical; details: after iodoacetamide alkylation
T1 construct: 6His; made in house; host or cells: E. coli BL21
T1 sequence (Q99497 1-189): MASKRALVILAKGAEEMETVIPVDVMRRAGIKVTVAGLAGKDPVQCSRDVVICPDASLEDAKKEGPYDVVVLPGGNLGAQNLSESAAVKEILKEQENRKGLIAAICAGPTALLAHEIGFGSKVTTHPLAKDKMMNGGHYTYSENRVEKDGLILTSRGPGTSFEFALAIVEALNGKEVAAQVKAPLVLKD
Text: (§1) FIG. 20A-C. S-nitrosothiol probes detect endogenous S-sulfinylation. (a) Direct conjugation of human DJ-1 (Cys106-SO2H) with N-acetyl-S-nitrosocysteine methyl ester. (b) MS/MS assignment of product ions from the S-sulfinylated peptide of human DJ-1, confirming direct thiosulfonate formation. (c) Gel-based analysis of S-sulfinylation in mammalian lysates with biotin-GSNO. Lysates are denatured and pre-alkylated with iodoacetamide.
It was next asked what would happen if the detection scheme was reversed, using S-nitrosothiol-linked probes to detect endogenous S-sulfinylation. Similar reactivity was recently reported using aryl-nitroso ligation to several sulfinic acid standards, including glutathione, to form a stable N-sulfonylbenzisoxazolone (see, e.g., Lo Conte, M. & Carroll, K. S. Angew Chem Int Ed Engl 51, 6502-5 (2012)). Despite such progress, there are no reported methods to selectively profile endogenous S-sulfinylation in complex proteomes. […]
Purified human GAPDH was diluted to 0.2 mg/mL in phosphate buffered saline (pH 7.3), and treated with 20 mM iodoacetamide for 30 minutes. […] Eluted peptides were analyzed using a Waters Synapt G2-S HDMS time-of-flight mass spectrometer in positive mode. […] MS data was searched using Waters Protein Lynx Global Server v3.0 using the exact mass calculated for the cysteine thiosulfonate modification.

[2] = tested on: S-sulfinylated proteins in mammalian lysates; assay: Gel-based analysis of S-sulfinylation with biotin-GSNO; format: biochemical; details: lysates in 6 M urea/PBS, pre-alkylated with iodoacetamide
Text: as §1
It was next asked what would happen if the detection scheme was reversed, using S-nitrosothiol-linked probes to detect endogenous S-sulfinylation. Similar reactivity was recently reported using aryl-nitroso ligation to several sulfinic acid standards, including glutathione, to form a stable N-sulfonylbenzisoxazolone (see, e.g., Lo Conte, M. & Carroll, K. S. Angew Chem Int Ed Engl 51, 6502-5 (2012)). Despite such progress, there are no reported methods to selectively profile endogenous S-sulfinylation in complex proteomes. In order to test this approach, recombinant human DJ-1 was purified, a redox chaperone that spontaneously forms a stable sulfinic acid at Cys106 (see, e.g., Canet-Aviles, R. M. et al. Proc Natl Acad Sci USA 101, 9103-8 (2004)). After iodoacetamide alkylation of free thiols, N-acetyl-S-nitrosocysteine methyl ester was added to DJ-1, and processed for high-resolution LC-MS analysis (FIG. 20A and FIG. 21)). […]

stability [1]: > 1 h
SMILES: N[C@@H](CCC(=O)N[C@@H](CSN=O)C(=O)NCC(=O)O)C(=O)O [GSNO, S-nitrosoglutathione, reference compound]

SMILES: COC(=O)[C@H](CSN=O)NC(C)=O [N-acetyl-S-nitrosocysteine methyl ester, (R)-methyl 2-acetamido-3-(nitrosothio)propanoate]
thiosulfonate formation with DJ-1 (human DJ-1 (Cys106-SO2H)): confirmed thiosulfonate formation at Cys106-SO2H

SMILES: O=NSC[C@H](NC(=O)CCC(NC(=O)CCCC[C@@H]1SC[C@@H]2NC(=O)N[C@@H]21)C(=O)O)C(=O)NCC(=O)O (stereo partly drawn) [biotin-GSNO, 5-(((R)-1-((carboxymethyl)amino)-3-(nitrosothio)-1-oxopropan-2-yl)amino)-5-oxo-2-(5-((3aS,4S,6aR)-2-oxohexahydro-1H-thieno[3,4-d]imidazol-4-yl)pentanamido)pentanoic Acid]
labeling of S-sulfinylated proteins [2]: distinct profile of putative S-sulfinylated proteins
